From patent US12187739B2, “Diaryl macrocycle polymorph” (TURNING POINT THERAPEUTICS, INC., priority 2015, dated 2025)

Tests used:
[1] = test system: Ba/F3-EML4-ALK wild type cell line; assay: EML4-ALK Ba/F3 stable cell line proliferation assay (CellTiter-Glo); format: cell-based; conditions: Ba/F3 cells with EML4-ALK wild-type (variant 1), 48 hours incubation; read-out: EML4-ALK Ba/F3 cell proli. IC50
Protocol: The EML4-ALK wild-type gene (variant 1) was synthesized at GenScript and cloned into pCDH-CMV-MCS-EF1-Puro plasmid (System Biosciences, Inc). Ba/F3-EML4-ALK wild type cell line was generated by infecting Ba/F3 cells with lentivirus containing EML4-ALK wide-type. Stable cell lines were selected by puromycin treatment, followed by IL-3 withdrawal. 5000 cells were seeded in 384 well white plate overnight before compound treatment.

[2] = test system: KM 12 cells (harboring endogenous TPM3-TRKA fusion gene); assay: cells; conditions: Homo sapiens, KM12, 72 h, read-out: KM 12 cell prolif. IC50 (nM)
Protocol: Colorectal cell lines KM 12 (harboring endogenous TPM3-TRKA fusion gene) cells were cultured in DMEM medium, supplemented with 10% fetal bovine serum and 100 U/mL of penicillin/streptomycin. 5000 cells were seeded in 384 well white plate for 24 hours before compounds treatment. Cell proliferation was measured using CellTiter-Glo luciferase-based ATP detection assay (Promega) following the manufactures's protocol after 72 hours incubation. IC50 determinations were performed using GraphPad Prism software (GraphPad, Inc., San Diego, CA).
5000 cells were seeded in 384 well white plate for 24 hours before compounds treatment. Cell proliferation was measured using CellTiter-Glo luciferase-based ATP detection assay (Promega) following the manufactures's protocol after 72 hours incubation. IC50 determinations were performed using GraphPad Prism software (GraphPad, Inc., San Diego, CA).

[3] = test system: SET-2 cells (harboring endogenous JAK2 V618F point mutation); assay: SET-2 cell proliferation assay (CellTiter-Glo); format: cell-based; conditions: Homo sapiens, SET-2 essential thrombocythemia cells, 72 hours incubation, read-out: SET2 cell proli. IC50
Protocol: Essential thrombocythemia cell line SET-2 cells (harboring endogenous JAK2 V618F point mutation) or T cell lymphoma Karpas-299 cell line (harboring endogenous NPM-ALK fusion gene) were cultured in RPMI medium, supplemented with 10% fetal bovine serum and 100 U/mL of penicillin/streptomycin. 5000 cells were seeded in 384 well white plate for 24 hours before compounds treatment. Cell proliferation was measured using CellTiter-Glo luciferase-based ATP detection assay (Promega) following the manufactures's protocol after 72 hours incubation. IC50 determinations were performed using GraphPad Prism software (GraphPad, Inc., San Diego, CA).

C[C@H]1CNC(=O)c2cnn3ccc(nc23)N[C@H](C)c2cc(F)ccc2O1 [Compound I, (7S,13R)-11-fluoro-7,13-dimethyl-6,7,13,14-tetrahydro-1,15-ethenopyrazolo[4,3-f][1,4,8,10]benzoxatriazacyclotridecin-4(5H)-one]
IC50 [1]: 21.1 nM | IC50 [2]: 0.5 nM | IC50 [3]: 242 nM
